# In paper PMC2858983 (Clinical cancer research : an official journal of the …, 2010):
# pIC50: −log10 of the molar value. Structures can show the parent of a compound that is named as a salt.
# Biological target: inducible nitric oxide synthase (iNOS) (Homo sapiens, UniProt P35228)
# Experiment: NO release
# Assay type: cell-based
# Chain of inducible nitric oxide synthase (iNOS) (P35228 whole entry): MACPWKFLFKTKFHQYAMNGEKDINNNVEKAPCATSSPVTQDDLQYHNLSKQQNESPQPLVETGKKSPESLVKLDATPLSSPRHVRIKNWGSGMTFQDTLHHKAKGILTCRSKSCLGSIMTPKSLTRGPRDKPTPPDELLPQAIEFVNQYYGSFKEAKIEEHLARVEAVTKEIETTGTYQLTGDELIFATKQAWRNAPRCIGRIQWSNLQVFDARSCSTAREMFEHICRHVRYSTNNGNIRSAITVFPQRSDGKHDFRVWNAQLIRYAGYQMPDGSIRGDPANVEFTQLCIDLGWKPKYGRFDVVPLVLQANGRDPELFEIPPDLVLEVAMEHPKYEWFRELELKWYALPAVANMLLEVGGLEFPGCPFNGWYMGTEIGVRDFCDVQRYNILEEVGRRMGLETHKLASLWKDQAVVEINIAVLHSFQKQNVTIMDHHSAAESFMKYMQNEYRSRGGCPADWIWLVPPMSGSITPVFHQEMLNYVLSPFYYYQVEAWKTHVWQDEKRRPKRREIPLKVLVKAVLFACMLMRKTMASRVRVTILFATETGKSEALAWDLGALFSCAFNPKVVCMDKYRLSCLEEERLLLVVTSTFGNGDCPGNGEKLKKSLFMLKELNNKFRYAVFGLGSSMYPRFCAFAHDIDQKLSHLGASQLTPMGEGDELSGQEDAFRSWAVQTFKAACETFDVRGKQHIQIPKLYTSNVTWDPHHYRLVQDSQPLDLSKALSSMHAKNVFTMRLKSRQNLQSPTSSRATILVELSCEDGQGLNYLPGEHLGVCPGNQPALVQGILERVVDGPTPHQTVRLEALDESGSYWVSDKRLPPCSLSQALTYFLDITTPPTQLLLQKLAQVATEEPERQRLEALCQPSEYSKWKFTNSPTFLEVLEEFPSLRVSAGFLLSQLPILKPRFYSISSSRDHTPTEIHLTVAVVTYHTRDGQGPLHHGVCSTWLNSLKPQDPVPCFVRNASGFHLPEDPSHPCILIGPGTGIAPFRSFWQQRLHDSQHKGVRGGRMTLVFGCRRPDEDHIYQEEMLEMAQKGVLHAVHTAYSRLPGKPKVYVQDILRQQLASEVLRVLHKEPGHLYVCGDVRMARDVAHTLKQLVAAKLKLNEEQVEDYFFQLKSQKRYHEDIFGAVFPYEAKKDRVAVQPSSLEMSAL
compound,measurement,value
"CC(=N)NCCCC[C@H](N)C(=O)O [L-nil, N6-(1-Iminoethyl)-L-lysine-dihydrochloride]",pIC50,3.23
